Tests used:
[1] = test system: CD3+, CD4+, CDK8+ and CD45+ T-cells; assay: Immune markers (T cell population in spleen) in CT26.WT-bearing treated mice; assay type: in vivo, mouse
Experimental: (§1) In another experiment, mice bearing CT26.WT colorectal cancer cells were treated with vehicle (distilled water QD PO), compound 1 (100 mg/kg QD PO), an anti-PD-1 antibody ([…] ip), or compound 1 plus the anti-PD-1 antibody.

[2] = test system: CT26.WT colorectal cancer cells; assay: In vivo anti-tumour activity in CT26.WT syngeneic mouse model (second experiment)
Experimental: (§2) Murine triple-negative breast cancer EMT6 tumour cells (ATCC® CRL-2755™) and colorectal cancer CT26.WT cells (ATCC® CRL-2638™) were cultured and expanded in RPMI-1640 medium (Roswell Park Memorial Institute Medium-1640) with L-glutamine and sodium bicarbonate (Sigma-Aldrich, Macquarie Park, NSW, Australia) supplemented with 10% heat-inactivated foetal bovine serum (FBS). Cells were cultured in an incubator at 5% CO2 37° C.
as §1

[3] = test system: PDL-1; assay: PD-L1 level in samples of EMT6-bearing treated mice; assay type: in vivo, mouse (female BALB/c); conditions: spleen samples isolated two hours post-final dose, 150 mg/kg QD PO
Experimental: (§3) EMT6 cells were harvested and re-suspended in a 1:1 mixture of Matrigel™ (#354234; Corning Life Sciences, Corning, NY, United States of America) and serum-free RPMI-1640 medium, and thereafter injected sub-cutaneously (sc) (7×10^5 cells in a volume of […]) into the right flank of each female BALB/c mouse. After the tumour volume reached ˜100 mm^3, the mice were randomised into two groups (n=4/group) and given vehicle (1% CMC in water), or compound 1 (150 mg/kg) once daily by oral administration (QD PO). […] The level of phosphorylated RB (p-S807/11) was also found to be reduced in the EMT6 tumours collected two hours post-final dose, confirming CDK4/6 inhibition (FIG. 1B). A reduction in the […], PDL-1, in the spleen samples of the mice isolated two hours post-final dose was also observed, indicating the immunotherapeutic potential of compound 1 (FIG. 1C).

[4] = test system: CT26.WT colorectal cancer cells; assay: In vivo anti-tumour activity in mice with a colorectal cancer cell syngeneic allograft (first experiment); parameters: species or system mouse (female BALB/c)
Experimental: as §2
Similarly, mice bearing CT26.WT colorectal cancer cells were matched and randomised to vehicle or treatment groups (n=8/group). Female BALB/c mice with mean tumour volume ˜100 mm^3 were given vehicle (distilled water QD PO), compound 1 (100 mg/kg QD PO), an anti-PD1 antibody (RMP1-14-derived mouse monoclonal antibody; Assay Matrix Pty Ltd, Ivanhoe North, VIC, Australia), 200 μg/mouse/week by intraperitoneal (ip) administration) or compound 1 plus anti-PD-1 antibody.

[5] = test system: phosphorylated RB (p-S807/11); assay: Phosphorylated RB level in EMT6 tumours of treated mice; assay type: in vivo, mouse (female BALB/c); conditions: EMT6 tumours collected two hours post-final dose, 150 mg/kg QD PO
Experimental: as §3

[6] = test system: EMT6 triple-negative breast cancer cells; assay: In vivo anti-tumour activity in mice with a breast cancer cell syngeneic allograft; conditions: 150 mg/kg QD PO
Experimental: as §2, §3

CCN1CCN(Cc2ccc(Nc3ncc(F)c(-c4sc(NC5CCCC5)nc4C)n3)nc2)CC1 [Compound 1, N-cyclopentyl-5-(2-((5-((4-ethylpiperazin-1-yl)methyl)pyridin-2-yl)amino)-5-fluoropyrimidin-4-yl)-4-methylthiazol-2-amine]
level of immune markers CD3+, CD4+, CDK8+ and CD45+ T-cells [1]: increased level | TGI, used alone ([2]; 100 mg/kg QD PO alone, day 15 of dosing): 77% | TGI, combination with anti-PD-1 antibody ([2]; 100 mg/kg QD PO plus anti-PD-1 antibody (150 g/mouse/week ip), day 15 of dosing): 91% | anti-tumour efficacy of combination compared with anti-PD-1 alone ([2]; compound 1 plus anti-PD-1 antibody, p=0.03): more effective | level of immune checkpoint protein ligand PDL-1 [3]: reduction | tumour growth inhibition (% TGI), used alone ([4]; 100 mg/kg QD PO alone, day 21 of dosing): 75% | tumour growth inhibition (% TGI), combination with anti-PD-1 antibody ([4]; 100 mg/kg QD PO plus anti-PD-1 antibody 200 μg/mouse/week ip, day 21 of dosing): 91% | survival of the mice, combination with anti-PD-1 antibody ([4]; 100 mg/kg QD PO plus anti-PD-1 antibody, p<0.001): significantly prolong | survival of the mice, single agent ([4]; 100 mg/kg QD PO, p<0.001): significantly prolong | level of phosphorylated RB (p-S807/11) [5]: reduced | weight loss or overt toxicity ([6]; EMT6-bearing mice, throughout the study): No significant weight loss or any overt toxicity

CNc1nc(C)c(-c2nc(Nc3ccc(CN4CCN(C(C)C)CC4)cn3)ncc2F)s1 [Compound 12, 5-(5-fluoro-2-((5-((4-isopropylpiperazin-1-yl)methyl)pyridin-2-yl)amino)pyrimidin-4-yl)-N,4-dimethylthiazol-2-amine]
tumour growth inhibition (% TGI) ([6]; EMT6 allograft, final day of tumour measurement): 47%

Reference: patent US20250049796A1, “USE OF 4-THIAZOL-N-(PYRIDIN-2-YL)PYRIMIDIN-2-AMINE DERIVATIVES IN COMBINATION THERAPIES FOR CANCER” (Aucentra Therapeutics Pty Ltd, priority 2022, published 2025)
